# From ChEMBL document CHEMBL3817752, “Antimycobacterial activity of new N(1)-[1-[1-aryl-3-[4-(1H-imidazol-1-yl)phenyl]-3-oxo]propyl]-pyridine-2-carboxamidrazone derivatives” (Bioorg Med Chem Lett, 2016)
# System: Mycobacterium tuberculosis variant bovis
# Assay: Antimycobacterial activity against Mycobacterium bovis NCTC 10772 after 7 days by resazurin microtiter assay
# Type: functional
# Settings: NCTC 10772, 168 h
row,Structure (SMILES),MIC
1,N/C(=N/NC(CC(=O)c1ccc(-n2ccnc2)cc1)c1ccccc1Cl)c1ccccn1 (stereo not given),18 µM
2,N/C(=N/NC(CC(=O)c1ccc(-n2ccnc2)cc1)c1ccccc1)c1ccccn1 (stereo not given),39 µM
3,N/C(=N/NC(CC(=O)c1ccc(-n2ccnc2)cc1)c1ccc(Cl)cc1Cl)c1ccccn1 (stereo not given),9 µM
4,N/C(=N/NC(CC(=O)c1ccc(-n2ccnc2)cc1)c1ccccc1[N+](=O)[O-])c1ccccn1 (stereo not given),17.6 µM
5,N/C(=N/NC(CC(=O)c1ccc(-n2ccnc2)cc1)c1cccc(F)c1)c1ccccn1 (stereo not given),18.7 µM
6,N/C(=N/NC(CC(=O)c1ccc(-n2ccnc2)cc1)c1cccc([N+](=O)[O-])c1)c1ccccn1 (stereo not given),17.6 µM
7,N/C(=N/NC(CC(=O)c1ccc(-n2ccnc2)cc1)c1ccc(Cl)cc1)c1ccccn1 (stereo not given),18 µM
8,N/C(=N/NC(CC(=O)c1ccc(-n2ccnc2)cc1)c1ccccc1F)c1ccccn1 (stereo not given),18.7 µM
9,N/C(=N/NC(CC(=O)c1ccc(-n2ccnc2)cc1)c1ccc(Br)cc1)c1ccccn1 (stereo not given),8.2 µM
10,N/C(=N/NC(CC(=O)c1ccc(-n2ccnc2)cc1)c1cccc(Br)c1)c1ccccn1 (stereo not given),16.3 µM
11,N/C(=N/NC(CC(=O)c1ccc(-n2ccnc2)cc1)c1ccccc1Br)c1ccccn1 (stereo not given),32.7 µM
12,N/C(=N/NC(CC(=O)c1ccc(-n2ccnc2)cc1)c1cccc(Cl)c1)c1ccccn1 (stereo not given),18 µM
13,N/C(=N/NC(CC(=O)c1ccc(-n2ccnc2)cc1)c1ccc(F)cc1)c1ccccn1 (stereo not given),18.7 µM
14,N/C(=N/NC(CC(=O)c1ccc(-n2ccnc2)cc1)c1ccc([N+](=O)[O-])cc1)c1ccccn1 (stereo not given),35.1 µM
15,NNC(=O)c1ccncc1 [ISONIAZID],7.3 µM
